Data as given in patent US6395772B1, “Method for blocking endothelial cell-leukocyte attachment by inhibiting expression of adhesion molecules on the vascular endothelium for therapeutic applications” (National Institute of Immunology, priority 1996, dated 2002).
Entries after “also recorded” stand apart in the source; their conditions may differ.

What was measured:
[1] = system: TNF sensitive mouse fibroblast L-929 cell line; assay: TNF-α mediated cytotoxicity on TNF-sensitive L-929 fibroblast cell line (MTT assay); type: cell-based
Method: FIG. 7: Effect of berberine on TNF-α mediated cytotoxicity on TNF sensitive mouse fibroblast L-929 cell line.
Effect of Berberine on TNF-α mediated cytotoxicity was evaluated using TNF-sensitive L-929 fibroblast cell line. L-929 cells were plated at a concentration of 5×10^4 cells/well in a 96-well flat bottom plate in a volume of 100 μl. The cells were incubated at 37° C. for 16-18 hrs. Different concentrations of TNF-α, with and without different doses of berberine, were added to the cultures. The cells were then incubated for additional 15 hrs and cytotoxity was measured by MTT assay.

[2] = system: B cells, T cells; settings: cited from earlier work
[3] = system: attachment of neutrophils to endothelial lining of the glomerular capillaries; assay: Neutrophil attachment to endothelial lining in kidney of endotoxin-challenged mice (electron microscopy); type: in vivo, BALB/C mice
Method: FIG. 1: Electron micrograph of kidney from a mouse challenged with endotoxin (LPS: 500 ug)) showing attachment of neutrophils with endothelial cells of glomerular capillary. Degenerative changes in surrounding tissue are shown.
FIG. 2: Electron micrograph of kidney from a mouse treated with a dose of berberine of 10 mg/kg followed 24 hours later by endotoxin (LPS 500 ug).
BALB/C mice were treated with berberine (1, 5, 10 or 20 ug/kg body weight) intraperitoneally and challenged 24 hours later with lethal dose of endotoxin. Kidneys were removed after 3, 6 and 12 hours after endotoxin challenge and the tissue samples was fixed and processed for electron microscopy.

[4] = system: ICAM-1 on endothelial cell line (send. 1); assay: TNF-α induced ICAM-1 expression on endothelial cell line (send. 1), flowcytometric analysis; type: cell-based
From the text: FIG. 5: Effect of berberine pretreatment on expression of TNF-α induced ICAM-1 expression on endothelial cell line (send. 1), in vitro. […] (Flowcytometric analysis using anti-ICAM 1 antibody—FITC conjugate). The black line represents background level of ICAM expression, the red line represents induced level of ICAM following TNF stimulation and the green line represents TNF-α induced ICAM-1 expression after treatment for different duration.
FIG. 6: Effect of berberine pretreatment (dose response) on expression of TNF-α induced ICAM-1 expression on endothelial cell line (send. 1), in vitro. […] (Flowcytometric analysis using anti-ICAM 1 antibody—FITC conjugate). The black line represents background level of ICAM-1 expression, the red line represents induced level of ICAM following TNF stimulation and the green line represents the TNF-α induced ICAM induced ICAM expression after treatment with different doses of berberine.
Shifting of this curve to the left indicates the lower amount of expression of ICAM-1.
Effect of berberine for various duration ranging from 1, 6, 12 and 24 hours on the expression of ICAM-1 on the endothelial cell line (send. 1) in response to a combination of recombinant TNF-α and IFN-γ was analyzed using flowcytometer after staining with FITC labeled anti-CD 54 (ICAM-1) antibody.

[5] = system: ICAM-1; assay: ICAM-1 expression on vascular endothelium of LPS-challenged mice (immunocytochemical localization); type: in vivo, BALB/C mice; settings: berberine intraperitoneally 24 hours before 500 ug LPS; sacrificed 6 hours after LPS
Method: FIG. 3: Photomicrograph of liver from mice challenged with endotoxin (LPS 500 ug). […] (Immunocytochemical localization using anti-ICAM-1 antibody on frozen tissue).
FIG. 4: Photomicrograph of liver from mice treated with berberine (10 ug/kg) followed 24 hours later by endotoxin (LPS 500 ug). […] (Immunocytochemical localization using anti-ICAM-1 antibody frozen tissue).
BALB/C mice were treated with berberine (1, 5, 10 or 20 ug/kg body weight) intraperitoneally and challenged 24 hours later with 500 ug of endotoxin (lipopolysaccharide: LPS); controls without berberine treatment were also given LPS challenge. Animals were sacrificed 6 hours after the LPS challenge and various organs (liver, kidney, lungs) were removed and immediately frozen in liquid nitrogen. Frozen section of these organs were subjected to immunocytochemical localization for ICAM 1 antibodies.

COc1ccc2cc3[n+](cc2c1OC)CCc1cc2c(cc1-3)OCO2 [berberine]
TNF mediated cytotoxity ([1]; berberine 100 μg/ml, TNF 100 pg/ml alone showed 66% cytotoxity, 15 hrs incubation): 27%
protection against TNF mediated killing ([1]; different doses of berberine with TNF-α, 15 hrs): dose dependent inhibition of cytotoxic effect; also recorded: dose dependent protection
antibody production by B cells [2]: inhibits antibody production by B cells
propagation of T cells [2]: no effect on propagation of T cells
glomerular morphology / surrounding tissue ([3]; berberine dose of 10-20 mg/kg, endotoxin challenge 24 hours later): surrounding tissue appears normal; also recorded: glomerular morphology was normal
attachment of neutrophils to endothelial lining of glomerular capillaries ([3]; berberine intraperitoneally 24 hours before lethal endotoxin (LPS 500 ug), kidneys 3, 6 and 12 hours after challenge): appear free without attachment to endothelial lining; also recorded: remarkably inhibited the attachment of neutrophils to endothelial lining of the glomerular capillaries
maximum inhibition of ICAM-1 expression ([4]; 24 hours of treatment at 100 μg/ml): 24 hour pretreatment shows the maximum inhibition of ICAM-1 expression and Treatment with 100 ug/ml berberine shows the maximum inhibition of ICAM-1 expression and maximum inhibition was seen at 24 hours of treatment at 100 μg/ml
dose dependence of inhibition of ICAM-1 expression ([4]; dose response, FIG. 6): dose dependent
inhibition of ICAM-1 expression on endothelial cells ([4]; recombinant TNF-α and IFN-γ stimulation, as early as 6 hours of treatment): inhibited the expression of ICAM-1 on endothelial cells
expression of ICAM-1 on vascular endothelium (liver, kidney, lungs) [5]: lack of expression of ICAM-1 on vascular endothelium; also recorded: inhibited expression of ICAM 1 on the endothelial lining of all organs
